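Tested at 5 concentrations; 48 h exposure; 96-well plates; endpoints linearly interpolated, else capped at highest concentration. GI50 marks 50% less growth. TGI: concentration producing complete growth inhibition.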
Key:
Test in all cases: growth of human tumour cells (NCI), 48 h; in the data active = GI50 below about 0.43 µM; inactive = the rest
RPMI-8226 leukemia = system: RPMI-8226 leukemia
786-0 renal = system: 786-0 renal
TK-10 renal = system: TK-10 renal
CCRF-CEM leukemia = system: CCRF-CEM leukemia
COLO 205 colon = system: COLO 205 colon
K-562 leukemia = system: K-562 leukemia
CAKI-1 renal = system: CAKI-1 renal
MDA-MB-435 = system: MDA-MB-435
SNB-19 CNS = system: SNB-19 CNS
NCI-H226 lung = system: NCI-H226 lung
HL-60(TB) leukemia = system: HL-60(TB) leukemia
NCI-H23 lung = system: NCI-H23 lung
MOLT-4 leukemia = system: MOLT-4 leukemia
MALME-3M melanoma = system: MALME-3M melanoma
ACHN renal = system: ACHN renal
SW-620 colon = system: SW-620 colon
SF-268 CNS = system: SF-268 CNS
UO-31 renal = system: UO-31 renal
HS 578T breast = system: HS 578T breast
KM12 colon = system: KM12 colon
SR leukemia = system: SR leukemia
OVCAR-5 ovarian = system: OVCAR-5 ovarian
IGROV1 ovarian = system: IGROV1 ovarian
NCI-H522 lung = system: NCI-H522 lung
UACC-62 melanoma = system: UACC-62 melanoma
HCT-15 colon = system: HCT-15 colon
SN12C renal = system: SN12C renal
RXF 393 renal = system: RXF 393 renal
HCC-2998 colon = system: HCC-2998 colon
SK-MEL-28 melanoma = system: SK-MEL-28 melanoma
A498 renal = system: A498 renal
HCT-116 colon = system: HCT-116 colon
SK-OV-3 ovarian = system: SK-OV-3 ovarian
T-47D breast = system: T-47D breast
SF-539 CNS = system: SF-539 CNS
A549 NSCLC = system: A549 NSCLC
SK-MEL-5 melanoma = system: SK-MEL-5 melanoma
U251 CNS = system: U251 CNS
LOX IMVI melanoma = system: LOX IMVI melanoma
MCF7 breast = system: MCF7 breast
OVCAR-3 ovarian = system: OVCAR-3 ovarian
SNB-75 CNS = system: SNB-75 CNS
BT-549 breast = system: BT-549 breast
OVCAR-8 ovarian = system: OVCAR-8 ovarian
HT29 colon = system: HT29 colon
SK-MEL-2 melanoma = system: SK-MEL-2 melanoma
M14 melanoma = system: M14 melanoma
DU-145 prostate = system: DU-145 prostate
HOP-62 NSCLC = system: HOP-62 NSCLC
PC-3 prostate = system: PC-3 prostate
NCI-H460 lung = system: NCI-H460 lung
MDA-MB-231 breast = system: MDA-MB-231 breast
NCI/ADR-RES ovarian = system: NCI/ADR-RES ovarian
UACC-257 melanoma = system: UACC-257 melanoma

CC/C(=C(/c1ccc(OCCN(C)C)cc1)c1ccc(OC(=O)CCCCCCCCC(=O)c2c(C)[nH]c(/C=C3\N=C(c4ccc[nH]4)C=C3OC)c2C)cc1)c1ccccc1
18.1 µM: TGI (UACC-62 melanoma) | TGI (MDA-MB-231 breast)
50.7 µM: TGI (SNB-19 CNS)
5.93 µM: TGI (LOX IMVI melanoma)
21.8 µM: TGI (HCT-116 colon)
85 µM: TGI (HS 578T breast)
97.8 µM: TGI (HCT-15 colon)
active: GI50 (MCF7 breast) 0.161 µM
14 µM: TGI (SW-620 colon)
3.2 µM: TGI (SK-MEL-5 melanoma)
72 µM: TGI (A498 renal)
61.6 µM: TGI (SF-539 CNS)
78 µM: TGI (COLO 205 colon)
4.48 µM: TGI (M14 melanoma)
inactive: GI50 (RPMI-8226 leukemia) 3.75 µM | GI50 (786-0 renal) 5.19 µM | GI50 (TK-10 renal) 21 µM | GI50 (CCRF-CEM leukemia) 0.768 µM | GI50 (COLO 205 colon) 8.2 µM | GI50 (K-562 leukemia) 4.54 µM | GI50 (CAKI-1 renal) 7 µM | GI50 (MDA-MB-435) 4.63 µM | GI50 (SNB-19 CNS) 12.1 µM | GI50 (NCI-H226 lung) > 100 µM | GI50 (HL-60(TB) leukemia) 12.3 µM | GI50 (NCI-H23 lung) 48.4 µM | GI50 (MOLT-4 leukemia) 5.13 µM | GI50 (MALME-3M melanoma) 40.7 µM | GI50 (ACHN renal) 7.82 µM | GI50 (SW-620 colon) 3.72 µM | GI50 (SF-268 CNS) 6.63 µM | GI50 (UO-31 renal) 4.45 µM | GI50 (HS 578T breast) 4.74 µM | GI50 (KM12 colon) 5.25 µM | GI50 (SR leukemia) 4.1 µM | GI50 (OVCAR-5 ovarian) > 100 µM | GI50 (IGROV1 ovarian) 23.1 µM | GI50 (NCI-H522 lung) 21.2 µM | GI50 (UACC-62 melanoma) 3.37 µM | GI50 (HCT-15 colon) 5.12 µM | GI50 (SN12C renal) 7.55 µM | GI50 (RXF 393 renal) 13.9 µM | GI50 (HCC-2998 colon) > 100 µM | GI50 (SK-MEL-28 melanoma) 43.9 µM | GI50 (A498 renal) 15 µM | GI50 (HCT-116 colon) 3.36 µM | GI50 (SK-OV-3 ovarian) > 100 µM | GI50 (T-47D breast) 3.56 µM | GI50 (SF-539 CNS) 10.7 µM | GI50 (A549 NSCLC) 4.13 µM | GI50 (SK-MEL-5 melanoma) 1.61 µM | GI50 (U251 CNS) 4.2 µM | GI50 (LOX IMVI melanoma) 2.36 µM | GI50 (OVCAR-3 ovarian) 10.9 µM | GI50 (SNB-75 CNS) 6.25 µM | GI50 (BT-549 breast) 5.21 µM | GI50 (OVCAR-8 ovarian) 9.06 µM | GI50 (HT29 colon) 5.18 µM | GI50 (SK-MEL-2 melanoma) 30.7 µM | GI50 (M14 melanoma) 2.15 µM | GI50 (DU-145 prostate) 8.06 µM | GI50 (HOP-62 NSCLC) 17 µM | GI50 (PC-3 prostate) 5.86 µM | GI50 (NCI-H460 lung) 4.26 µM | GI50 (MDA-MB-231 breast) 3.4 µM | GI50 (NCI/ADR-RES ovarian) 31.7 µM | GI50 (UACC-257 melanoma) 62.5 µM
10.9 µM: TGI (MCF7 breast)
> 100 µM: TGI (RPMI-8226 leukemia) | TGI (786-0 renal) | TGI (TK-10 renal) | TGI (CCRF-CEM leukemia) | TGI (K-562 leukemia) | TGI (CAKI-1 renal) | TGI (MDA-MB-435) | TGI (NCI-H226 lung) | TGI (HL-60(TB) leukemia) | TGI (NCI-H23 lung) | TGI (MOLT-4 leukemia) | TGI (MALME-3M melanoma) | TGI (ACHN renal) | TGI (SF-268 CNS) | TGI (UO-31 renal) | TGI (KM12 colon) | TGI (SR leukemia) | TGI (OVCAR-5 ovarian) | TGI (IGROV1 ovarian) | TGI (NCI-H522 lung) | TGI (SN12C renal) | TGI (RXF 393 renal) | TGI (HCC-2998 colon) | TGI (SK-MEL-28 melanoma) | TGI (SK-OV-3 ovarian) | TGI (T-47D breast) | TGI (A549 NSCLC) | TGI (U251 CNS) | TGI (OVCAR-3 ovarian) | TGI (SNB-75 CNS) | TGI (BT-549 breast) | TGI (OVCAR-8 ovarian) | TGI (HT29 colon) | TGI (SK-MEL-2 melanoma) | TGI (DU-145 prostate) | TGI (HOP-62 NSCLC) | TGI (PC-3 prostate) | TGI (NCI-H460 lung) | TGI (NCI/ADR-RES ovarian) | TGI (UACC-257 melanoma)
